Test results from PubChem BioAssay AID328 (DTP/NCI, 2004).
Values joined by “and” are separate entries in the source; they are usually repeats but may differ in a detail not shown here. Identical values can stand only once. Inconclusive results and toxic doses are left out.

Tested on: BDF1 mice, P388 leukemia ip, median survival T/C
Assay: NCI In Vivo Anticancer Drug Screen. Data for tumor model P388 Leukemia (intraperitoneal) in B6D2F1 (BDF1) mice
Details: endpoint: median survival time, higher = longer survival
Outline: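 Survival ratio, drug arm over vehicle arm, in mice with a transplanted tumour.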

[1] = dose: 25.0 mg/kg/injection, schedule: Q01DX009 (ip), vehicle: Klucel (hydroxypropylcellulose) (HPC)

`CC1CCC(NC(=O)N(CCCl)N=O)CC1` (configuration not stated) was tested, and the T/C (dose: 0.66 mg/kg/injection, schedule: Q01DX009 (ip), vehicle: Klucel (hydroxypropylcellulose) (HPC)) was 97 % of control, the T/C (dose: 0.99 mg/kg/injection, schedule: Q01DX009 (ip), vehicle: Klucel (hydroxypropylcellulose) (HPC)) was 107 % of control and the T/C (dose: 1.5 mg/kg/injection, schedule: Q01DX009 (ip), vehicle: Klucel (hydroxypropylcellulose) (HPC)) was 177 % of control. The T/C (dose: 3.1 mg/kg/injection, schedule: Q04DX003 (ip), vehicle: Klucel (hydroxypropylcellulose) (HPC)) was 154 % of control, the T/C (dose: 3.6 mg/kg/injection, schedule: Q01DX009 (ip), vehicle: Klucel (hydroxypropylcellulose) (HPC)) was 180 % of control and the T/C (dose: 4.7 mg/kg/injection, schedule: Q04DX003 (ip), vehicle: Klucel (hydroxypropylcellulose) (HPC)) was 172 % of control. The T/C (dose: 5.0 mg/kg/injection, schedule: Q04DX002 (ip), vehicle: other) was 168 % of control, the T/C (dose: 7.2 mg/kg/injection, schedule: Q04DX003 (ip), vehicle: saline) was 190 % of control and the T/C (dose: 8.3 mg/kg/injection, schedule: Q01DX009 (ip), vehicle: Klucel (hydroxypropylcellulose) (HPC)) was 250 % of control. For the same compound, the T/C (dose: 9.4 mg/kg/injection, schedule: Q04DX003 (ip), vehicle: saline with Tween-80) was 113 % of control, the T/C (dose: 10.0 mg/kg/injection, schedule: Q01DX001 (ip), vehicle: alcohol) was 119 % of control and the T/C (dose: 10.0 mg/kg/injection, schedule: Q04DX002 (ip), vehicle: other) was 194 % of control. For the same compound, the T/C (dose: 10.0 mg/kg/injection, schedule: Q04DX003 (ip), vehicle: saline with Tween-80) was 209 % of control, the T/C (dose: 10.0 mg/kg/injection, schedule: Q04DX003 (ip), vehicle: saline) was 225 % of control and the T/C (dose: 11.0 mg/kg/injection, schedule: Q04DX003 (ip), vehicle: saline with Tween-80) was 272 % of control. The T/C (dose: 12.5 mg/kg/injection, schedule: Q01DX009 (ip), vehicle: Klucel (hydroxypropylcellulose) (HPC)) was 300 % of control and 120 % of control, the T/C (dose: 15.0 mg/kg/injection, schedule: Q04DX003 (ip), vehicle: saline with Tween-80) was 241 % of control and 322 % of control and 212 % of control and the T/C (dose: 16.0 mg/kg/injection, schedule: Q01DX001 (ip), vehicle: saline with Tween-80) was 322 % of control. For the same compound, the T/C (dose: 16.0 mg/kg/injection, schedule: Q04DX003 (ip), vehicle: saline with Tween-80) was 545 % of control, the T/C (dose: 16.5 mg/kg/injection, schedule: Q04DX003 (ip), vehicle: saline) was 272 % of control and the T/C (dose: 18.0 mg/kg/injection, schedule: Q01DX009 (ip), vehicle: Klucel (hydroxypropylcellulose) (HPC)) was 110 % of control. The T/C (dose: 18.75 mg/kg/injection, schedule: Q01DX009 (ip), vehicle: Klucel (hydroxypropylcellulose) (HPC)) was 100 % of control, the T/C (dose: 20.0 mg/kg/injection, schedule: Q04DX002 (ip), vehicle: other) was 247 % of control and the T/C (dose: 20.0 mg/kg/injection, schedule: Q04DX003 (ip), vehicle: saline with Tween-80) was 258 % of control and 294 % of control and 482 % of control. The T/C (dose: 24.0 mg/kg/injection, schedule: Q04DX003 (ip), vehicle: saline with Tween-80) was 545 % of control, the T/C [1] was 115 % of control and the T/C (dose: 25.0 mg/kg/injection, schedule: Q04DX003 (ip), vehicle: alcohol) was 300 % of control. The T/C (dose: 25.0 mg/kg/injection, schedule: Q04DX003 (ip), vehicle: saline) was 240 % of control and 272 % of control, the T/C (dose: 30.0 mg/kg/injection, schedule: Q04DX003 (ip), vehicle: saline with Tween-80) was 446 % of control and the T/C (dose: 37.5 mg/kg/injection, schedule: Q04DX003 (ip), vehicle: saline) was 90 % of control and 218 % of control. For the same compound, the T/C (dose: 40.0 mg/kg/injection, schedule: Q04DX002 (ip), vehicle: other) was 117 % of control, the T/C (dose: 50.0 mg/kg/injection, schedule: Q04DX003 (ip), vehicle: alcohol) was 115 % of control and the T/C (dose: 54.0 mg/kg/injection, schedule: Q01DX001 (ip), vehicle: saline with Tween-80) was 499 % of control.

With `Cc1ccc(N2C=Nc3ccc(C)cc3C2)cc1` the T/C (dose: 10.0 mg/kg/injection, schedule: Q01DX009 (ip), vehicle: Klucel (hydroxypropylcellulose) (HPC)) was 100 % of control, the T/C (dose: 15.0 mg/kg/injection, schedule: Q01DX009 (ip), vehicle: Klucel (hydroxypropylcellulose) (HPC)) was 100 % of control and the T/C [1] was 90 % of control. The T/C (dose: 40.0 mg/kg/injection, schedule: Q01DX009 (ip), vehicle: Klucel (hydroxypropylcellulose) (HPC)) was 100 % of control, the T/C (dose: 50.0 mg/kg/injection, schedule: Q01DX009 (ip), vehicle: Klucel (hydroxypropylcellulose) (HPC)) was 118 % of control and the T/C (dose: 100.0 mg/kg/injection, schedule: Q01DX009 (ip), vehicle: Klucel (hydroxypropylcellulose) (HPC)) was 109 % of control. For the same compound, the T/C (dose: 100.0 mg/kg/injection, schedule: Q04DX003 (ip), vehicle: other) was 109 % of control, the T/C (dose: 200.0 mg/kg/injection, schedule: Q01DX009 (ip), vehicle: Klucel (hydroxypropylcellulose) (HPC)) was 90 % of control and the T/C (dose: 200.0 mg/kg/injection, schedule: Q04DX003 (ip), vehicle: other) was 104 % of control.

With `O=[N+]([O-])c1ccc(N2CCN(Cc3ccccc3)CC2)c2c1no[n+]2[O-]` the T/C (dose: 75.0 mg/kg/injection, schedule: Q04DX003 (ip), vehicle: saline with Tween-80) was 101 % of control and the T/C (dose: 300.0 mg/kg/injection, schedule: Q04DX003 (ip), vehicle: saline with Tween-80) was 121 % of control.

For `COc1cc(C=Nc2cccc(C(=O)O)c2)ccc1N(CCCl)CCCl`, the T/C (dose: 66.0 mg/kg/injection, schedule: Q04DX003 (ip), vehicle: saline with Tween-80) was 260 % of control.

`Cc1ccc(/C(C#N)=C2C=C(Br)/C(=N\O)C=C/2Cl)cc1` was tested, and the T/C (dose: 28.12 mg/kg/injection, schedule: Q04DX003 (ip), vehicle: Klucel (hydroxypropylcellulose) (HPC)) was 100 % of control, the T/C (dose: 56.25 mg/kg/injection, schedule: Q01DX009 (ip), vehicle: Klucel (hydroxypropylcellulose) (HPC)) was 115 % of control and the T/C (dose: 56.25 mg/kg/injection, schedule: Q04DX003 (ip), vehicle: Klucel (hydroxypropylcellulose) (HPC)) was 100 % of control. The T/C (dose: 100.0 mg/kg/injection, schedule: Q01DX001 (ip), vehicle: Klucel (hydroxypropylcellulose) (HPC)) was 90 % of control, the T/C (dose: 112.5 mg/kg/injection, schedule: Q01DX009 (ip), vehicle: Klucel (hydroxypropylcellulose) (HPC)) was 110 % of control and the T/C (dose: 112.5 mg/kg/injection, schedule: Q04DX003 (ip), vehicle: Klucel (hydroxypropylcellulose) (HPC)) was 100 % of control. The T/C (dose: 150.0 mg/kg/injection, schedule: Q01DX009 (ip), vehicle: Klucel (hydroxypropylcellulose) (HPC)) was 100 % of control, the T/C (dose: 170.0 mg/kg/injection, schedule: Q04DX003 (ip), vehicle: Klucel (hydroxypropylcellulose) (HPC)) was 105 % of control and the T/C (dose: 200.0 mg/kg/injection, schedule: Q01DX001 (ip), vehicle: Klucel (hydroxypropylcellulose) (HPC)) was 104 % of control. The T/C (dose: 225.0 mg/kg/injection, schedule: Q01DX009 (ip), vehicle: Klucel (hydroxypropylcellulose) (HPC)) was 105 % of control, the T/C (dose: 255.0 mg/kg/injection, schedule: Q04DX003 (ip), vehicle: Klucel (hydroxypropylcellulose) (HPC)) was 110 % of control and the T/C (dose: 335.0 mg/kg/injection, schedule: Q01DX009 (ip), vehicle: Klucel (hydroxypropylcellulose) (HPC)) was 100 % of control. The T/C (dose: 380.0 mg/kg/injection, schedule: Q04DX003 (ip), vehicle: Klucel (hydroxypropylcellulose) (HPC)) was 100 % of control.

For `COc1ccc(C(=O)CCCCl)c(OC)c1`, the T/C (dose: 100.0 mg/kg/injection, schedule: Q04DX003 (ip), vehicle: saline with Tween-80) was 100 % of control, the T/C (dose: 200.0 mg/kg/injection, schedule: Q04DX003 (ip), vehicle: saline with Tween-80) was 100 % of control and the T/C (dose: 400.0 mg/kg/injection, schedule: Q04DX003 (ip), vehicle: saline with Tween-80) was 90 % of control.

For `c1cc[c]([Sn]([S][Sn]([c]2ccccc2)([c]2ccccc2)[c]2ccccc2)([c]2ccccc2)[c]2ccccc2)cc1`, the T/C (dose: 50.0 mg/kg/injection, schedule: Q01DX009 (ip), vehicle: saline with Tween-80) was 98 % of control, the T/C (dose: 100.0 mg/kg/injection, schedule: Q01DX009 (ip), vehicle: saline with Tween-80) was 93 % of control and the T/C (dose: 200.0 mg/kg/injection, schedule: Q01DX009 (ip), vehicle: saline with Tween-80) was 114 % of control. The T/C (dose: 400.0 mg/kg/injection, schedule: Q01DX009 (ip), vehicle: saline with Tween-80) was 86 % of control.

`CC(C)CC(C(=O)NC1C(=O)NC(Cc2c[nH]c3ccccc23)C(=O)N/C=C\c2ccc(cc2)OC1C(C)C)N(C)C` (configuration not stated) was tested, and the T/C (dose: 0.1 mg/kg/injection, schedule: Q01DX010 (ip), vehicle: alcohol) was 100 % of control, the T/C (dose: 0.2 mg/kg/injection, schedule: Q01DX010 (ip), vehicle: alcohol) was 101 % of control and the T/C (dose: 0.8 mg/kg/injection, schedule: Q01DX010 (ip), vehicle: alcohol) was 123 % of control. The T/C (dose: 1.0 mg/kg/injection, schedule: Q01DX009 (ip), vehicle: steriod suspending solution) was 110 % of control, the T/C (dose: 2.0 mg/kg/injection, schedule: Q01DX009 (ip), vehicle: steriod suspending solution) was 115 % of control and the T/C (dose: 4.0 mg/kg/injection, schedule: Q01DX009 (ip), vehicle: steriod suspending solution) was 105 % of control. For the same compound, the T/C (dose: 8.0 mg/kg/injection, schedule: Q01DX009 (ip), vehicle: steriod suspending solution) was 100 % of control.
